Test results published in patent publication US20220281886A1, “NATRIURETIC PEPTIDE RECEPTOR A AGONISTS USEFUL FOR THE TREATMENT OF CARDIOMETABOLIC DISEASES, KIDNEY DISEASE AND DIABETES” (Merck Sharp & Dohme Corp., priority 2019, published 2022).
pEC50: −log10 of the molar value.

target: T1, hNPRA (Homo sapiens, UniProt P16066); assay: NPRA Functional Cell Assay (cGMP HTRF); format: cell-based; conditions: Human NPRA HEK JumpIn stable cells; cGMP by HTRF after 1 hour at 37° C.; 10-point dose response
T1 construct: expressed in transfected cells
T1 sequence (P16066 33-1061): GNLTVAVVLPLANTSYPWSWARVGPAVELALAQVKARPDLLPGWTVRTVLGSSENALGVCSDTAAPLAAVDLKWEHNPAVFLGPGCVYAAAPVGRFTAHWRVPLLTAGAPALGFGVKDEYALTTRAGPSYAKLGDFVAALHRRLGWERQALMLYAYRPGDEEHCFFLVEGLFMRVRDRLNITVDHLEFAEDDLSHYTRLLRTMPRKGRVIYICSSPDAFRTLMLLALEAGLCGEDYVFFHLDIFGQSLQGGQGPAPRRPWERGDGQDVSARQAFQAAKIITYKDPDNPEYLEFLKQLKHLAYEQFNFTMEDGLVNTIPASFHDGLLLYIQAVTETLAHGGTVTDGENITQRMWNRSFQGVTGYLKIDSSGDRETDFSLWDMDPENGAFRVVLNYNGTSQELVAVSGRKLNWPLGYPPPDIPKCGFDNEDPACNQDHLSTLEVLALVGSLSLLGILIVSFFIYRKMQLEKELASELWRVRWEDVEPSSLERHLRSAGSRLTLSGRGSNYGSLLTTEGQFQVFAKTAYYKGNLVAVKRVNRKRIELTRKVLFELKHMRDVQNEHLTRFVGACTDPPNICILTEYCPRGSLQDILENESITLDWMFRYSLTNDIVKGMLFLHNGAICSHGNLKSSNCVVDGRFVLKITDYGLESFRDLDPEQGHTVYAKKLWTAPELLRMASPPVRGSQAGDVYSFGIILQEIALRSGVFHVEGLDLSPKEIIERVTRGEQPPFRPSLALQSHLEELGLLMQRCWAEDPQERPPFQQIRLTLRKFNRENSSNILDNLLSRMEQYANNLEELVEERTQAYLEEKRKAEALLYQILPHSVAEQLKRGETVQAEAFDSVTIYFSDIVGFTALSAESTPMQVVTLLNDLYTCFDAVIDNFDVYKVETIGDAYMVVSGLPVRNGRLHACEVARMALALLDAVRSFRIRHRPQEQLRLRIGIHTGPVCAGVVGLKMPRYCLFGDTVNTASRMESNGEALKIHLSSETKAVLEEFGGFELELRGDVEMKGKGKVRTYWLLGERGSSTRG
Excerpt: Assay Buffer components HEPES and Opti-MEM® I Reduced-Serum with Glutamine (no phenol red) were from Gibco/Invitrogen (Thermo Fisher Scientific, Waltham, Mass. USA). 3-Isobutyl-1-methylxanthine (IBMX) and 4-(3-Butoxy-4-methoxybenzyl)imidazolidin-2-one (RO20) were obtained from Sigma-Aldrich (St. Louis, Mo., USA). DPBS (Dulbecco's phosphate-buffered saline) without Ca2+ and Mg2+ was purchased from GE Healthcare Bio-Sciences (Pittsburgh, Pa., USA). 384 well white Optiplates were from Perkin Elmer (Atlantic Highlands, N.J., USA). Human ANP (Atrial Natriuretic Peptide) (1-28) was purchased from Sigma-Aldrich (Catalog #A1663) and rat ANP (1-28) from Bachem (Torrance, Calif., USA) (Catalog #H2100). Human-BNP (Human-Brain Natriuretic Peptide) (1-32 AA) was purchased from American Peptide Company (Sunnyvale, Calif., USA) (product No. 14-1-90). cGMP kits were purchased from Cisbio. The assay ready frozen (ARF) Human/rat/dog NPRA HEK JumpIn Stable frozen cells (low passage number 5-11) were prepared in-house.
Test compounds were titrated in DMSO in a 10-point dose response in a separate step followed by a 100-fold dilution into the reaction. Positive response for each assay was determined using 10 nM rat-ANP peptide (rat cells) or 50 nM h-ANP peptide (human and dog cells).
Cells were thawed, washed with DPBS and resuspended in assay buffer (Opti-MEM+Glutamine, phenol red free media, 10 mM HEPES, 100 uM IBMX and 100 uM RO20) that was warmed to 37° C. Cells were then transferred to microplates via a Microplate Combi dispenser at a density of 1500, 400 and 1200 cells/well for human, rat and dog cells respectively, followed by acoustic transfer (Echo) of compound.
(§1) Compounds and cells were incubated at 37° C. with 5% CO2 for 1 hour, after which the cells were lysed and cGMP was captured using a CisBio cGMP HTRF assay kit. The TRF signal was measured with an Envision plate reader (emission set to 615 and 665 nm) after 1 hour incubation at ambient temperature. The TRF signal was converted to [cGMP] through the use of a cGMP calibration curve on each microplate. EC50's were generated from the resulting dose response curves by use of a 4 parameter logistic algorithm.
Assay Buffer components HEPES and Opti-MEM® I Reduced-Serum with Glutamine (no phenol red) were from Gibco/Invitrogen. 3-Isobutyl-1-methylxanthine (IBMX) and 4-(3-Butoxy-4-methoxybenzyl)imidazolidin-2-one (RO20) were obtained from Sigma. DPBS (Dulbecco's phosphate-buffered saline) without Ca2+ and Mg2+ was purchased from GE Healthcare Bio-Sciences (Pittsburgh, Pa., USA). 384 well white Optiplates were from Perkin Elmer (Atlantic Highlands, N.J., USA). Human ANP (1-28) was purchased from Sigma (A1663) and rat ANP (1-28) from Bachem (H2100). Human-BNP (1-32 AA) was purchased from American Peptide Company (Sunnyvale, Calif., USA) (product No. 14-1-90). cGMP kits were purchased from Cisbio (Bedford, Mass., USA). The assay ready frozen (ARF) Human/rat/dog NPRA HEK JumpIn Stable frozen cells (low passage number 5-11) were prepared in-house.
as §1, with “Envision®” for “Envision”, “(Perkin Elmer)(emission” for “(emission”
hNPRA EC50 (nM) are were determined for the compounds of Example 1 through 273 and are reported in the Experimental section of this application.

Row | pEC50 | SMILES
1 | 6.01 | CCS(=O)(=O)c1ccc([C@@H](CCN2CCC(O)CC2)NC(=O)c2cc(F)c3nc4c(cc3c2)CC(F)(C(C)C)CC4)cn1 (stereo in doubt) [Example 30, (S)-N-((R)-1-(6-(ethylsulfonyl)pyridin-3-yl)-3-(4-hydroxypiperidin-1-yl)propyl)-4,7-difluoro-7-isopropyl-5,6,7,8-tetrahydroacridine-2-carboxamide]
2 | 6.56 | CC1C(=O)NC(=O)N1c1ccc([C@@H](CCN2CCC(O)CC2)NC(=O)c2cc(F)c3nc4c(cc3c2)C[C@](F)(C(C)C)CC4)cn1 (stereo partly drawn) [Example 29, (7S)-4,7-difluoro-N-((1R)-3-(4-hydroxypiperidin-1-yl)-1-(6-(5-methyl-2,4-dioxoimidazolidin-1-yl)pyridin-3-yl)propyl)-7-isopropyl-5,6,7,8-tetrahydroacridine-2-carboxamide]
3 | 6.78 | CC(C)[C@]1(F)CCc2nc3c(F)cc(C(=O)N[C@H](CCN4CCC(C(=O)O)CC4)c4ccc(-c5cnc(O)c(F)c5)cc4)cc3cc2C1 [Example 25, 1-((R)-3-((S)-4,7-difluoro-7-isopropyl-5,6,7,8-tetrahydroacridine-2-carboxamido)-3-(4-(5-fluoro-6-hydroxypyridin-3-yl)phenyl)propyl)piperidine-4-carboxylic acid]
4 | 5.98 | CC(C)[C@]1(F)CCc2nc3c(F)cc(C(=O)N[C@H](CCN4CCC(C(F)(F)F)CC4)c4ccc(-c5ccnnc5)nc4)cc3cc2C1 (racemic) [Example 64, rac-(7S)-4,7-difluoro-7-isopropyl-N-[rac-(1R)-1-(6-pyridazin-4-yl-3-pyridyl)-3-[4-(trifluoromethyl)-1-piperidyllpropyl]-6,8-dihydro-5H-acridine-2-carboxamide]
5 | 6.85 | CC(C)[C@]1(F)CCc2nc3c(F)cc(C(=O)N[C@H](CCN4CCCOCC4)c4ccc(-c5ccnnc5)nc4)cc3cc2C1 (racemic) [Example 57, rac-(7S)-4,7-difluoro-7-isopropyl-N-[rac-(1R)-3-(1,4-oxazepan-4-yl)-1-(6-pyridazin-4-yl-3-pyridyl)propyl]-6,8-dihydro-5H-acridine-2-carboxamide]
6 | 6.43 | CN1CC(NC(=O)c2cccc([C@@H](CCN3CCC(O)CC3)NC(=O)c3ccc4nc5c(cc4c3)C[C@@H](C3(C)CC3)CC5)c2)C1 (racemic) [Example 68, rac-(7S)-7-(1-methylcyclopropyl)-N-[rac-(1R)-3-(4-hydroxy-1-piperidyl)-1-[3-[(1-methylazetidin-1-ium-3-yl)carbamoyl]phenyl]propyl]-5,6,7,8-tetrahydroacridine-2-carboxamide;2,2,2-trifluoroacetate]
7 | 6.63 | CC(O)C1CCN(CC[C@@H](NC(=O)c2cc(F)c3nc4c(cc3c2)C[C@](F)(C(C)C)CC4)c2ccc(-c3ccnnc3)nc2)CC1 (mixture of isomers) [Example 41, rac-(7S)-4,7-difluoro-7-isopropyl-N-[rac-(1R)-3-[4-(1-hydroxyethyl)piperidin-1-ium-1-yl]-1-(6-pyridazin-4-yl-3-pyridyl)propyl]-6,8-dihydro-5H-acridine-2-carboxamide;2,2,2-trifluoroacetate]
8 | 6.46 | CC(C)[C@]1(F)CCc2nc3c(F)cc(C(=O)N[C@H](CCN4CCC5(CCCO5)CC4)c4ccc(-c5ccnnc5)nc4)cc3cc2C1 (racemic) [Example 55, rac-(7S)-4,7-difluoro-7-isopropyl-N-[rac-(1R)-3-(1-oxa-8-azaspiro[4.5]decan-8-yl)-1-(6-pyridazin-4-yl-3-pyridyl)propyl]-6,8-dihydro-5H-acridine-2-carboxamide]
9 | 6.59 | CC(C)[C@]1(F)CCc2nc3c(F)cc(C(=O)N[C@H](CCN4CCC5(O)CCCCC5C4)c4ccc(-c5ccnnc5)nc4)cc3cc2C1 (stereo partly drawn) [Example 15, (7S)-4,7-difluoro-N-[(1R)-3-(4a-hydroxyoctahydroisoquinolin-2(1H)-yl)-1-(6-pyridazin-4-ylpyridin-3-yl)propyl]-7-(1-methylethyl)-5,6,7,8-tetrahydroacridine-2-carboxamide]
10 | 6.60 | CC(C)[C@]1(F)CCc2nc3c(F)c(F)c(C(=O)N[C@H](CCN4CCC(O)CC4)c4ccc(N5CCOC5=O)cc4)cc3cc2C1 [Example 7, (7S)-3,4,7-trifluoro-N-{(1R)-3-(4-hydroxypiperidin-1-yl)-1-[4-(2-oxo-1,3-oxazolidin-3-yl)phenyl]propyl}-7-(1-methylethyl)-5,6,7,8-tetrahydroacridine-2-carboxamide]
11 | 6.69 | CC(C)[C@]1(F)CCc2nc3c(F)cc(C(=O)N[C@H](CCN4CCC(C)(O)CC4)c4ccc(-c5ccnnc5)nc4)cc3cc2C1 [Example 12, (7S)-4,7-difluoro-N-[(1R)-3-(4-hydroxy-4-methylpiperidin-1-yl)-1-(6-pyridazin-4-ylpyridin-3-yl)propyl]-7-(1-methylethyl)-5,6,7,8-tetrahydroacridine-2-carboxamide]
12 | 7.01 | CC(C)[C@]1(F)CCc2nc3c(F)cc(C(=O)N[C@H](CCN4CCC5(CC[C@@H](O)C5)CC4)c4ccc(-c5ccnnc5)nc4)cc3cc2C1 (racemic) [Example 49, rac-(7S)-4,7-difluoro-7-isopropyl-N-[rac-(1R)-1-(6-pyridazin-4-yl-3-pyridyl)-3-[rac-(3R)-3-hydroxy-8-azaspiro[4.5]decan-8-yl]propyl]-6,8-dihydro-5H-acridine-2-carboxamide]
13 | 6.61 | CC(C)[C@]1(F)CCc2nc3c(F)cc(C(=O)N[C@H](CCN4CCC(O)CC4)c4ccc(NS(=O)(=O)N(C)C)nc4)cc3cc2C1 [Example 26, (S)-N-((R)-1-(6-((N,N-dimethylsulfamoyl)amino)pyridin-3-yl)-3-(4-hydroxypiperidin-1-yl)propyl)-4,7-difluoro-7-isopropyl-5,6,7,8-tetrahydroacridine-2-carboxamide]
14 | 5.59 | Cc1cc(C(=O)N[C@H](CCN2CCC(O)CC2)c2ccc(N3CCOC3=O)cc2)cc2cc3c(nc12)CCC(C(C)(C)C)C3 (stereo partly drawn) [Example 9, 7-(tert-butyl)-N-((R)-3-(4-hydroxypiperidin-1-yl)-1-(4-(2-oxooxazolidin-3-yl)phenyl)propyl)-4-methyl-5,6,7,8-tetrahydroacridine-2-carboxamide+]
